Test results reported in US8906953B2, “Pyrrolidine substitute flavones for the treatment of inflammatory disorders” (Piramal Enterprises Limited, priority 2010, dated 2014).

Experiments:
Assay type in all cases: cell-based
[1] = system: TNF-α; assay: Spontaneous TNF-α release from synovial cells of RA patients; conditions: Homo sapiens, Synovial cell, freshly isolated synovial cells from RA patients, 16 hours
Protocol: (§1) Cytokine production in synovial cells obtained from rheumatoid arthritis patients undergoing knee replacement surgery, was measured as per the method described in reference, Lancet, 1989, 29, 244-247, the disclosure of which is incorporated herein by reference for the teaching of the assay. The synovial membrane tissue was digested by incubating at 37° C. for 3 hours in an atmosphere of 5% CO2, in Roswell Park Memorial Institute (RPMI) medium containing penicillin-G (100 U/mL), streptomycin (100 μg/mL), amphotericin B (50 ng/mL) (GIBCO), 1.33 mg/mL collagenase Type I (Worthington Biochemical Corporation, New Jersey, USA), 0.5 μg/mL DNAse Type I (SIGMA) and 8.33 U/mL heparin (Biological E. Limited, India). The digested tissue was then filtered through a membrane (mesh size 70 micron) (SIGMA), the cells were washed 3 times and suspended in complete medium (RPMI supplemented with 5% FCS and 5% human serum). The cell concentration was adjusted to 1×10^6 cells/mL. The viability as determined by trypan blue dye exclusion was uniform Ly≧98%. The cell suspension (100 μL) was added to the wells of a 96-well culture plate. […] The final concentration of DMSO was adjusted to 0.5%. The vehicle (0.5° A) DMSO) was used as control. SB 203580 (20 μM) was used as a standard. The plates were incubated for 16 hours at 37° C. in 5% CO2 atmosphere. […]

[2] = system: ICAM-1; assay: TNF-α induced cell surface expression of ICAM-1 on HUVECs; conditions: Homo sapiens, HUVEC; TNF-α (1 ng/mL) stimulated HUVECs, 4 hours, n=2
Protocol: The assay was designed as in reference, Transplantation, 1997, 63(5), 759-764, the disclosure of which is incorporated herein by reference for the teaching of the assay.
Human umbilical vein endothelial cells (HUVECs) were obtained from Cascade Biologics (Oregon-USA). Cells were cultured in M-200 medium (Cascade Biologics) supplemented with low serum growth supplements (LSGS) (Cascade Biologics), penicillin-G (100 U/mL), streptomycin (100 μg/mL) and amphotericin B (50 ng/mL) (GIBCO). […] After TNF-α stimulation (1 ng/mL) (R&D Systems (Minneapolis, Minn.)) for 4 hours at 37° C. in an atmosphere of 5% CO2, supernatants were harvested and assayed for the expression of ICAM-1 (intercellular cell adhesion molecules), whereas the expressions of VCAM-1 (vascular cell adhesion molecules) and E-selectin were evaluated after 6 hours of stimulation. […] To quantitatively measure the amount of cell surface expressions of ICAM-1, VCAM-1 and E-selectin, ELISA assay was performed using anti-ICAM-1 (clone BBIG-I1), anti-VCAM-1 (clone BBIG-V1), anti-E-selectin (clone BBIG-E4) antibodies, isotype control mouse IgG1 (clone 11711.11) and the secondary antibody (anti-mouse IgG-HRP antibody) which were procured from R&D Systems (Minneapolis, Minn., USA). […]

[3] = system: IL-6; assay: LPS-induced IL-6 release from hPBMCs (ELISA); conditions: Homo sapiens
Protocol: Cytokine production by lipopolysaccharides (LPS) in hPBMCs (human peripheral blood mononuclear cells) was measured as in reference, Physiol. Res. 2003, 52, 593-598, the disclosure of which is incorporated by reference for the teaching of the assay. Blood was collected from healthy donors into Potassium EDTA vacutainer tubes (BID vacutainer). The PBMC were isolated using gradient centrifugation in Histopaque-1077 solution (Sigma). Isolated PBMC were suspended in RPMI 1640 (Rosewell Park Memorial Institute) culture medium (Sigma-Aldrich Fine Chemicals, USA) containing 10% fetal bovine serum (FBS) (JRH, USA), 100 U/mL penicillin (Sigma Chemical Co. St Louis, Mo., USA) and 100 μg/mL streptomycin (Sigma Chemical Co. St Louis, Mo.). The cell concentration was adjusted to 1×10^6 cells/mL. The viability as determined by trypan blue dye exclusion was uniform Ly≧98%. The cell suspension (100 μL) was added to the wells of a 96-well culture plate. Following cell plating, 79 μL of the culture medium and 1 μL of various concentrations of test compounds (compounds of formula 1) (final concentration 0.001, 0.003, 0.005, 0.01, 0.025, 0.03, 0.05, 0.1, 0.25, 0.3 and 1 μM) dissolved in DMSO (dimethyl sulfoxide, Sigma, Mo., USA) were added to the cells. The final concentration of DMSO was adjusted to 0.5%. The vehicle (0.5% DMSO) was used as control. […]

[4] = system: TNF-α; assay: LPS-induced TNF-α release from hPBMCs (ELISA); conditions: Homo sapiens
Protocol: Cytokine production by lipopolysaccharides (LPS) in hPBMCs (human peripheral blood mononuclear cells) was measured as in reference, Physiol. Res. 2003, 52, 593-598, the disclosure of which is incorporated by reference for the teaching of the assay. Blood was collected from healthy donors into Potassium EDTA vacutainer tubes (BID vacutainer). The PBMC were isolated using gradient centrifugation in Histopaque-1077 solution (Sigma). Isolated PBMC were suspended in RPMI 1640 (Rosewell Park Memorial Institute) culture medium (Sigma-Aldrich Fine Chemicals, USA) containing 10% fetal bovine serum (FBS) (JRH, USA), 100 U/mL penicillin (Sigma Chemical Co. St Louis, Mo., USA) and 100 μg/mL streptomycin (Sigma Chemical Co. St Louis, Mo.). The cell concentration was adjusted to 1×10^6 cells/mL. The viability as determined by trypan blue dye exclusion was uniform Ly≧98%. The cell suspension (100 μL) was added to the wells of a 96-well culture plate. Following cell plating, 79 μL of the culture medium and 1 μL of various concentrations of test compounds (compounds of formula 1) (final concentration 0.001, 0.003, 0.005, 0.01, 0.025, 0.03, 0.05, 0.1, 0.25, 0.3 and 1 μM) dissolved in DMSO (dimethyl sulfoxide, Sigma, Mo., USA) were added to the cells. The final concentration of DMSO was adjusted to 0.5%. The vehicle (0.5% DMSO) was used as control. […] The plates were incubated for 30 minutes at 37° C. in an atmosphere of 5% CO2. Finally, 20 μL (10 μg/mL) per well of LPS, (Escherchia coli 0127:B8, Sigma Chemical Co., St. Louis, Mo.) was added to the wells of the incubated plates, for a final concentration of 1 μg/mL. The plates were incubated at 37° C. for 5 hours in an atmosphere of 5% CO2. […] Supernatants were harvested and assayed for TNF-α, IL-1β, IL-6 and IL-8 by ELISA as described by the manufacturer. (OptiEIA ELISA sets, BD Biosciences, Pharmingen). The 50% inhibitory concentration (IC50) values were calculated by a nonlinear regression method using GraphPad software (Prism 3.03).

[5] = system: IL-6; assay: Spontaneous IL-6 release from synovial cells of RA patients; conditions: Homo sapiens, Synovial cell, freshly isolated synovial cells from RA patients, 16 hours
Protocol: as §1

An IC50 [1] of 20000 nM, an IC50 [2] of 670 nM and an IC50 [3] of 100 nM were found for CN1CC[C@@H](c2c(O)cc(O)c3c(=O)cc(-c4ccc(C(F)(F)F)cc4Cl)oc23)[C@@H]1CO.Cl [Compound of example 3, (+)-trans-2-(2-Chloro-4-trifluoromethyl-phenyl)-5,7-dihydroxy-8-(2-hydroxymethyl-1-methyl-pyrrolidin-3-yl)-chromen-4-one hydrochloride] in this work. For the same compound, the IC50 ([4]; LPS-induced release from hPBMCs (Table 1A), read-out: IC50 TNF-α) was 1000 nM, the IC50 ([4]; LPS-stimulated hPBMCs, 5 hours, read-out: Activity (TNF-α) IC50) was 1000 nM and the IC50 [5] was 10000 nM.
